The values below come from patent US5244918A, “Benzofuran derivative and pharmaceutical comprising the same as active ingredient” (Meiji Milk Products Co., Ltd., priority 1989, dated 1993).

Like-named read-outs stand apart in the source and are kept apart here.

In one data set the target is T1, 5-lipoxygenase (Rattus norvegicus, UniProt P12527).
T1 construct: ultracentrifugation at 100,000×g for 90 minutes to collect a supernatant, which was served as a 5-lipoxygenase enzyme liquid; host or cells: RBL-1 (rat basophilic leukemia cells), 100,000×g supernatant of sonicated cells
T1 sequence (P12527 1-673): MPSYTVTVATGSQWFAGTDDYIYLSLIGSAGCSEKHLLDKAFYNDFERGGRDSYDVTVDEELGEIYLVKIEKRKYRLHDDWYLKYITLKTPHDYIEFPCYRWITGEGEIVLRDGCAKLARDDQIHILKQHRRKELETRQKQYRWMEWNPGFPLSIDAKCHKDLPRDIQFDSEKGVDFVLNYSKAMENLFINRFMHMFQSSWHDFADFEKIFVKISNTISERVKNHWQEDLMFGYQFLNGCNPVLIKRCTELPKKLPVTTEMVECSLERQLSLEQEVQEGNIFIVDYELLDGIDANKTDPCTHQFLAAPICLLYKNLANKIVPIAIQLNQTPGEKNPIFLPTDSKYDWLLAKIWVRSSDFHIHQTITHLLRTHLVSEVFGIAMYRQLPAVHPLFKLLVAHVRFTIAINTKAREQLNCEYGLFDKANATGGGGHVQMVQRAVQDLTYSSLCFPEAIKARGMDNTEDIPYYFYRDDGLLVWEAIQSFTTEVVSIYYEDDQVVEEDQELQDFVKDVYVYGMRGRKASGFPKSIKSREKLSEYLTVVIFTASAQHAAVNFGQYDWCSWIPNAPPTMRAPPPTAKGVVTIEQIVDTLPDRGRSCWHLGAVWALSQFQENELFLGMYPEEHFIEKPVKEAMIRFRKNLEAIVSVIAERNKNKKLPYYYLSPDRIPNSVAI
The data set can be described thus: 5-Lipoxygenase inhibitive activity (production of 5-HETE by RBL-1 cell supernatant). The data set is classed as biochemical. The note with it: for IC50: inhibition of 5-HETE production, 37° C., 10 minutes, 100 μM arachidonic acid. The protocol:
2.5×10^7 RBL-1 cells (rat basophilic leukemia cells, purchased from Dainippon Pharmaceutical Co. Ltd.) were washed twice with 0.1M Tris-HCl buffer (pH 7.5) and ultrasonicated. The pulverized cell liquid was subjected to ultracentrifugation at 100,000×g for 90 minutes to collect a supernatant, which was served as a 5-lipoxygenase enzyme liquid in the test. […] After terminating the reaction by an addition of 50 μl of 1N HCl, the reaction mixture was extracted with 6 ml of ethyl acetate.

Data set [1] has as its system SRS-A production. The note with it: Prostaglandins 26, 955-973 (1983); read-out: 50% inhibition concentration (known agent, literature); cited from earlier work.
Another data set relates to edema in paws of rats. The data set can be described thus: Edema inhibitive activity in rat soles (arachidonate-induced paw edema). To be noted: 200 mg/kg oral. It is filed as in vivo, rat (Wister male). On the procedure:
In vivo anti-inflammatory action of Compound 1 was tested using edema in paws of rats as a model.
Wister male rats (Japan Charles River), weighing 150-170 g, 6 week age, were fasted from the previous day of the test for serving to the experiment.
Samples (10 ml/kg) were orally administered to the control (solvent: 0.5% gum arabica) group and Compound 1 (200 mg/kg body weight) test group. After 2 hours, 100 μl of a sodium arachidonate solution (5 mg/ml, 0.1M carbonate buffer, pH 8.4) was injected in the paw to determine the increase of the edema volume after 1 hour. The increase of the edema volume was determined by subtracting the value measured 1 hour before the administration of arachidonate from the value measured 1 hour after the administration. The foot volume increase (ml, means±S.D.) in the control group was 0.822±0.131 (n=10), whereas that in Compound 1 test group was 0.664±0.104 (n=8).

Data set [2] deals with SRS-A production. Kind of data set: SRS-A production inhibitive activity (sensitized guinea pig lung fragments, ileum bioassay). It is filed as cell-based, guinea pig (Hartley male). The protocol:
LTC4 and LTD4 which consist of SRS-A are very strong chemical mediators of allergic bronchial asthma and the like. The inhibitory effect of Compound 1 against the production of SRS-A was therefore biologically measured.
A suspension of 1 mg of egg white albumin and 0.5 ml of complete Freund's adjuvant was intraperitoneally injected to Hartley male guinea pigs. The same antigen liquid was again injected 2 or 3 weeks thereafter to effect the sensitization. The sensitized guinea pigs were sacrificed by bleeding, and the lung was washed with a Tyrode's solution and cut into pieces to prepare lung fragment specimens. 300 mg of the lung fragments were floated on 2.8 ml of the Tyrode's solution. After shaking the solution at 37° C. for 20 minutes, 0.1 ml of Compound 1 was added. Shaking this solution was carried out for a further 5 minutes, followed by the addition of 0.1 ml of an egg white albumin solution (the ultimate antigen concentration: 1 mg/ml). After the reaction at 37° C. for 20 minutes, 12 ml of methanol was added and the mixture was stirred. The reaction mixture was centrifuged, the supernatant was concentrated under reduced pressure to dryness, and the dry solid was dissolved into 1 ml of water to biologically measure LTs (SRS-A) contained therein.
The determination of the quantity of SRS-A produced was carried out by using the ileum enucleated from Hartley male guinea pigs and counting the constriction of the ileum in the presence of 10^-6 M Atropine and Pyrilamine. A standard curve for the standard sample was prepared based on LTD4 to determine the amount of SRS-A produced by the effect of Compound 1 as the amount of LTD4.

Data set [3] concerns auricle edema induced with arachidonic acid. Kind of data set: Auricle edema inhibitive activity in mice (induced with arachidonic acid). The data set is classed as in vivo, mouse (ICR male). To be noted: topical. The protocol:
In vivo anti-inflammatory action of Compound 1 was tested using auricle edema in mice as a model.
ICR male mice (Japan Charles River), weighing 29.9-40.4 g, 8 week age, were anesthetized with pentobarbital (Trademark: Nembutal, manufactured by Dainabott-Dainippon Pharmaceutical Co., Ltd.) to measure the thickness of the right ear with a dial thickness gauge. 20 μl of Compound 1 and control compound (acetone) were applied (the amount hereinafter specified) to the inside of the right ear with microsyringe, and, 30 minutes later, 2 mg of arachidonic acid was applied in the same manner to the inside of the right ear. The thickness of the right ear was measured 60 minutes after the application of arachidonic acid. Mice were then sacrificed by vertebral cervical dislocation and a circle with a diameter of 7 mm was cut out from the center of the right ear with an ear punch to measure its weight. The test was performed twice; the amounts of Compound 1 applied were 4 mg, 1 mg, 0.4 mg, 0.04 mg, and 0.004 mg per ear for the first test and 1 mg, 0.2 mg, 0.04 mg, 0.008 mg, and 0.0016 mg per ear for the second test. Both Compound 1 and arachidonic acid were used as dissolved in acetone.
The results are shown in FIG. 8-1 (the first test) and FIG. 8-2 (the second test). […] The 50% effective dose (ED50) in the two experiments were very close to each other, 0.03-0.08 mg/ear.

In a further data set the test system is mice. Kind of data set: Single administration toxicity test in mice. The note with it: mouse, in vivo. On the procedure:
Compound 1 was intravenously or intraperitoneally administered one time to groups of ICR male mice (age: 5 weeks, purchased from Japan SLC Co.), each group consisting of 5, to observe the death of the mice in 14 days. […] Thus, the fatal dose of Compound 1 in single intravenous administration to mice was above 20 mg/kg. […] The fatal dose of Compound 1 in single intraperitoneal administration to mice was about 100 mg/kg or more.

Regarding “2-(1,3-pentadienyl)-2,3-dihydro-5-hydroxy(or methoxy)-7-methoxy(or hydroxy)benzofuran [Compound 3]”, the IC50 against 5-lipoxygenase amounted to 1500 nM.
Still for that read-out and setting: to `CCCCCC1Cc2cc(O)cc(O)c2O1` (centres unmarked) [Compound 2, 2-n-pentyl-2,3-dihydro-5,7dihydroxybenzofuran] belongs 1200 nM.
With `CC1=C(C)C(=O)C(CCCCC#CCCCC#CCO)=C(C)C1=O` [AA-861], in the data set on SRS-A production [1], the IC50 was 1800 nM.
As to `C/C=C/C=C/C1Cc2cc(O)cc(O)c2O1` (stereo not drawn) [Compound 1, 2-(1-tans, 3-trans-pentadienyl)-2,3-dihydro-5,7-dihydroxybenzofuran], at 5-lipoxygenase, the “5-lipoxygenase inhibitory activity (in words)” value is listed as “specific 5-lipoxygenase inhibitory activity” and the IC50 was 2000 nM. Besides, in the data set on edema in paws of rats (2 h before arachidonate, 1 h after, n=8, control 0.822±0.131 (n=10)), the “foot volume increase (means±S.D.)” value came to 0.664 ± 0.104 mL. In addition, in the data set on edema in paws of rats (versus control group), the edema inhibitory effect was 19.2%. The “SRS-A inhibitory effect compared with AA-861 (in words)” value with SRS-A production [2] (AA-861: 1.8×10^-6 M (literature)) is recorded as “equivalent to a known 5-lipoxygenase inhibitory agent, AA-861”. The IC50 in the data set with SRS-A production [2] (Cavia porcellus, 20 min, sensitized guinea pig lung fragments, egg white albumin 1 mg/ml, 37° C., 20 min, read-out: 50% inhibition concentration, SRS-A production) stood at 4 µM. Moreover, the “SRS-A production inhibitory effect (in words)” value with SRS-A production [2] (guinea pig lung) is on record as “dependent on the concentration”. The “50% effective dose (ED50)” value in data set [3] (inside of right ear, 30 min before 2 mg arachidonic acid, two experiments) is listed as 0.03-0.08 mg/ear. Further, in data set [3] (ear thickness and weight, FIG. 8-1, 8-2), the “inhibitory effect against auricle edema (in words)” value is given as “dose dependent inhibitory effect”. The “death of mice, intraperitoneal” value in the data set on mice was “no death in the mice occurred”. The “fatal dose, single intraperitoneal administration” value in the data set with mice (ip) is reported as no less than 100 mg/kg. The “fatal dose, single intravenous administration” value in the data set on mice (iv) was “above 20 mg/kg”. Also, in the data set on mice (iv, 20 mg/kg), the “death of mice, intravenous” value is “no mice were dead”; the “general conditions, body weight and autopsy, intravenous” value is recorded as “No abnormality was observed”.
